Laboratory results taken from PubChem BioAssay AID1963963 (Molecular Pharmacology Branch, DTP, NCI, 2024).
Each block holds one compound with its values, some of them ahead of it.

Test system: 958667-338-R-J2-PDC tumor spheroids viability
Assay: Anticancer human tumor 958667-338-R-J2-PDC patient-derived colon adenocarcinoma cell line growth inhibition [PI3K]
Conditions: spheroids with HUVEC and MSC; for IC50: curve of first compound; for viability, T/C: stronger effect = lower value
How it was run: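 Tumor cells grown as multi-cell spheroids with HUVEC endothelial cells and MSC fibroblast-like stroma were treated with targeted agents combined with inavolisib, alpelisib, duvelisib or copanlisib. Doses fell in half-log steps from near clinical Cmax, else from 10 microM. Viability was measured.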

[1] = second compound 0.0316 µM, first compound 0.0316 µM
[2] = second compound 0.0316 µM, first compound 0.1 µM
[3] = second compound 0.0316 µM, first compound 0.316 µM
[4] = second compound 0.0316 µM, first compound 1 µM
[5] = second compound 0.0316 µM, first compound 3.16 µM
[6] = second compound 0.0316 µM, first compound 10 µM
[7] = second compound 0.1 µM, first compound 0.0316 µM
[8] = second compound 0.1 µM, first compound 0.1 µM
[9] = second compound 0.1 µM, first compound 0.316 µM
[10] = second compound 0.1 µM, first compound 1 µM
[11] = second compound 0.1 µM, first compound 3.16 µM
[12] = second compound 0.1 µM, first compound 10 µM
[13] = second compound 0.316 µM, first compound 0.0316 µM
[14] = second compound 0.316 µM, first compound 0.1 µM
[15] = second compound 0.316 µM, first compound 0.316 µM
[16] = second compound 0.316 µM, first compound 1 µM
[17] = second compound 0.316 µM, first compound 3.16 µM
[18] = second compound 0.316 µM, first compound 10 µM
[19] = second compound 1 µM, first compound 0.0316 µM
[20] = second compound 1 µM, first compound 0.1 µM
[21] = second compound 1 µM, first compound 0.316 µM
[22] = second compound 1 µM, first compound 1 µM
[23] = second compound 1 µM, first compound 3.16 µM
[24] = second compound 1 µM, first compound 10 µM
[25] = second compound 0.00316 µM, first compound 0.0316 µM
[26] = second compound 0.00316 µM, first compound 0.1 µM
[27] = second compound 0.01 µM, first compound 0.0316 µM
[28] = second compound 0.01 µM, first compound 0.1 µM
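Note: spheroids exposed to compounds for seven days before readout.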

- IC50 (second compound 0.0316 µM): > 10 µM
- IC50 (second compound 0.1 µM): > 10 µM
- IC50 (second compound 0.316 µM): > 10 µM
- IC50 (second compound 1 µM): > 10 µM
- IC50 (second compound 3.16 µM): 7.83 µM
- IC50 (second compound 10 µM): 8.56 µM
SMILES: C#Cc1c(F)ccc2cc(O)cc(-c3ncc4c(N5CC6CCC(C5)N6)nc(OCC56CCCN5CC(F)C6)nc4c3F)c12 (stereo unspecified) + CC(Nc1ncnc2nc[nH]c12)c1cc2cccc(Cl)c2c(=O)n1-c1ccccc1
- viability, T/C [1]: 104%
- viability, T/C [2]: 99.2%
- viability, T/C [3]: 109%
- viability, T/C [4]: 84.9%
- viability, T/C [5]: 97.5%
- viability, T/C [6]: 69.7%
- viability, T/C [7]: 102%
- viability, T/C [8]: 109%
- viability, T/C [9]: 86.8%
- viability, T/C [10]: 104%
- viability, T/C [11]: 85.2%
- viability, T/C [12]: 77.5%
- viability, T/C [13]: 84%
- viability, T/C [14]: 99.3%
- viability, T/C [15]: 93.5%
- viability, T/C [16]: 92.8%
- viability, T/C [17]: 93.9%
- viability, T/C [18]: 63.5%
- viability, T/C [19]: 77.4%
- viability, T/C [20]: 101%
- viability, T/C [21]: 90.9%
- viability, T/C [22]: 84.8%
- viability, T/C [23]: 106%
- viability, T/C [24]: 65.1%
- viability, T/C (second compound 3.16 µM, first compound 0.0316 µM): 91.4%
- viability, T/C (second compound 3.16 µM, first compound 0.1 µM): 94.2%
- viability, T/C (second compound 3.16 µM, first compound 0.316 µM): 85.3%
- viability, T/C (second compound 3.16 µM, first compound 1 µM): 76.5%
- viability, T/C (second compound 3.16 µM, first compound 3.16 µM): 73.2%
- viability, T/C (second compound 3.16 µM, first compound 10 µM): 43.6%
- viability, T/C (second compound 10 µM, first compound 0.0316 µM): 86.3%
- viability, T/C (second compound 10 µM, first compound 0.1 µM): 83.2%
- viability, T/C (second compound 10 µM, first compound 0.316 µM): 73.1%
- viability, T/C (second compound 10 µM, first compound 1 µM): 86.9%
- viability, T/C (second compound 10 µM, first compound 3.16 µM): 71.5%
- viability, T/C (second compound 10 µM, first compound 10 µM): 46.4%

- IC50 (second compound 0.00316 µM): > 10 µM
- IC50 (second compound 0.01 µM): > 10 µM
- IC50 (second compound 0.0316 µM): 6.5 µM
- IC50 (second compound 0.1 µM): 1.09 µM
- IC50 (second compound 0.316 µM): < 0.0316 µM
- IC50 (second compound 1 µM): < 0.0316 µM
SMILES: C#Cc1c(F)ccc2cc(O)cc(-c3ncc4c(N5CC6CCC(C5)N6)nc(OCC56CCCN5CC(F)C6)nc4c3F)c12 (stereo unspecified) + COc1c(OCCCN2CCOCC2)ccc2c3n(c(=NC(=O)c4cnc(N)nc4)nc12)CCN3
- viability, T/C [25]: 112%
- viability, T/C [26]: 107%
- viability, T/C (second compound 0.00316 µM, first compound 0.316 µM): 83.9%
- viability, T/C (second compound 0.00316 µM, first compound 1 µM): 108%
- viability, T/C (second compound 0.00316 µM, first compound 3.16 µM): 86.9%
- viability, T/C (second compound 0.00316 µM, first compound 10 µM): 74%
- viability, T/C [27]: 93.4%
- viability, T/C [28]: 86.9%
- viability, T/C (second compound 0.01 µM, first compound 0.316 µM): 109%
- viability, T/C (second compound 0.01 µM, first compound 1 µM): 73.3%
- viability, T/C (second compound 0.01 µM, first compound 3.16 µM): 68.7%
- viability, T/C (second compound 0.01 µM, first compound 10 µM): 56.7%
- viability, T/C [1]: 70.8%
- viability, T/C [2]: 86.9%
- viability, T/C [3]: 73.2%
- viability, T/C [4]: 70.4%
- viability, T/C [5]: 62.1%
- viability, T/C [6]: 42.9%
- viability, T/C [7]: 71.7%
- viability, T/C [8]: 63.4%
- viability, T/C [9]: 54.6%
- viability, T/C [10]: 51.6%
- viability, T/C [11]: 46.7%
- viability, T/C [12]: 28%
- viability, T/C [13]: 35.1%
- viability, T/C [14]: 41.2%
- viability, T/C [15]: 35.8%
- viability, T/C [16]: 32.7%
- viability, T/C [17]: 20.4%
- viability, T/C [18]: 10%
- viability, T/C [19]: 14.1%
- viability, T/C [20]: 18.1%
- viability, T/C [21]: 24.2%
- viability, T/C [22]: 15.9%
- viability, T/C [23]: 8.98%
- viability, T/C [24]: 1.67%

- IC50 (second compound 0.00316 µM): > 0.1 µM
- IC50 (second compound 0.01 µM): > 0.1 µM
- IC50 (second compound 0.0316 µM): > 0.1 µM
- IC50 (second compound 0.1 µM): > 0.1 µM
- IC50 (second compound 0.316 µM): < 0.000316 µM
- IC50 (second compound 1 µM): < 0.000316 µM
SMILES: Cn1ncnc1[C@H]1c2n[nH]c(=O)c3cc(F)cc(c23)N[C@@H]1c1ccc(F)cc1 + COc1c(OCCCN2CCOCC2)ccc2c3n(c(=NC(=O)c4cnc(N)nc4)nc12)CCN3
- viability, T/C (second compound 0.00316 µM, first compound 0.000316 µM): 96.3%
- viability, T/C (second compound 0.00316 µM, first compound 0.001 µM): 104%
- viability, T/C (second compound 0.00316 µM, first compound 0.00316 µM): 93.6%
- viability, T/C (second compound 0.00316 µM, first compound 0.01 µM): 102%
- viability, T/C [25]: 87.8%
- viability, T/C [26]: 75.8%
- viability, T/C (second compound 0.01 µM, first compound 0.000316 µM): 76.3%
- viability, T/C (second compound 0.01 µM, first compound 0.001 µM): 72.5%
- viability, T/C (second compound 0.01 µM, first compound 0.00316 µM): 94.2%
- viability, T/C (second compound 0.01 µM, first compound 0.01 µM): 90.7%
- viability, T/C [27]: 80.5%
- viability, T/C [28]: 87.3%
- viability, T/C (second compound 0.0316 µM, first compound 0.000316 µM): 69.4%
- viability, T/C (second compound 0.0316 µM, first compound 0.001 µM): 74.4%
- viability, T/C (second compound 0.0316 µM, first compound 0.00316 µM): 98.4%
- viability, T/C (second compound 0.0316 µM, first compound 0.01 µM): 79.2%
- viability, T/C [1]: 79.8%
- viability, T/C [2]: 61.9%
- viability, T/C (second compound 0.1 µM, first compound 0.000316 µM): 62%
- viability, T/C (second compound 0.1 µM, first compound 0.001 µM): 61.7%
- viability, T/C (second compound 0.1 µM, first compound 0.00316 µM): 59.6%
- viability, T/C (second compound 0.1 µM, first compound 0.01 µM): 66.8%
- viability, T/C [7]: 57.3%
- viability, T/C [8]: 56%
- viability, T/C (second compound 0.316 µM, first compound 0.000316 µM): 37%
- viability, T/C (second compound 0.316 µM, first compound 0.001 µM): 38%
- viability, T/C (second compound 0.316 µM, first compound 0.00316 µM): 43.8%
- viability, T/C (second compound 0.316 µM, first compound 0.01 µM): 46.1%
- viability, T/C [13]: 34.9%
- viability, T/C [14]: 34.9%
- viability, T/C (second compound 1 µM, first compound 0.000316 µM): 19.7%
- viability, T/C (second compound 1 µM, first compound 0.001 µM): 15.6%
- viability, T/C (second compound 1 µM, first compound 0.00316 µM): 21.7%
- viability, T/C (second compound 1 µM, first compound 0.01 µM): 21.1%
- viability, T/C [19]: 22.5%
- viability, T/C [20]: 14.9%
